The values below come from patent US20250144107A1, “USE OF A PIKFYVE INHIBITOR IN COMBINATION WITH IMMUNOTHERAPY” (The Regents of the University of Michigan, priority 2023, published 2025).

One assay deals with IL-12 in cDCs. Description: Il12b RT-qPCR and IL-12 ELISA in cDCs. The class given is cell-based, mice. Here is the method:
FIG. 21E is a bar graph comparison of Il12b expression fold change by RT-qPCR in apilimod vs. DMSO-treated, 3 or 12 hours, cDCs after 6 days of culture.
FIG. 21F is a bar graph comparison of IL-12p40 protein levels by ELISA in media from apilimod vs. DMSO-treated, 12 hours, cDCs after 6 days of culture.
FIG. 21G is a bar graph Supp. 5 g Comparison of IL-12p70 protein levels by ELISA in media from apilimod vs. DMSO-treated, 24 hours, cDCs after 6 days of culture.
(In general: Quantitative PCR measures a nucleic acid by following its amplification.)

The test system of the next assay is subcutaneous MC38 tumors. Description: Subcutaneous MC38 tumor model. In kind it is in vivo, mice. Here is the method:
FIG. 16A is a line graph of the subcutaneous tumor volume of MC38 tumors in mice treated with vehicle or apilimod, 30 mg/kg×5 days/week.
FIG. 16B is a series of two scatter plots of the percent IFNγ^+ of CD8^+ T cells in vehicle or apilimod-treated MC38 tumors.
FIG. 16C is a line graph of the subcutaneous tumor volume of MC38 tumors in mice treated with vehicle versus apilimod, 30 mg/kg×5 days/week, in wild-type or Batf3^−/− mice.
FIG. 26A is a bar graph of the percent IFNγ^+ of CD8^+ T cells in vehicle or apilimod-treated, 30 mg/kg×5 days/week MC38 tumors.
FIG. 26B is a line graph of the subcutaneous tumor volume of MC38 tumors treated with vehicle versus apilimod, 30 mg/kg×5 days/week, in NSG™ mice.
FIG. 26C is a line graph of the subcutaneous tumor volume of MC38 tumors in mice treated with vehicle versus apilimod, 30 mg/kg×5 days/week, and additionally treated with IgG2a or αIL-12p40 blocking antibody.
FIG. 26D is a line graph of the subcutaneous tumor volume of MC38 tumors in mice treated with vehicle versus apilimod, 30 mg/kg×5 days/week, and additionally treated with IgG1 or αIFNγ blocking antibody.

In the case of `Cc1cccc(/C=N/Nc2cc(N3CCOCC3)nc(OCCc3ccccn3)n2)c1` [apilimod, N-[(E)-(3-methylphenyl)methylideneamino]-6-morpholin-4-yl-2-(2-pyridin-2-ylethoxy)pyrimidin-4-amine], in the assay on IL-12 in cDCs (ELISA), the “secretion of IL-12p40” value is “increased” and the “secretion of IL-12p70” value is on record as “increased”. Further, the Il12b transcripts result with IL-12 in cDCs (RT-qPCR) was “increased”. The “efficacy in Batf3−/− mice” value with subcutaneous MC38 tumors (Batf3−/− vs WT mice) is recorded as “loss of apilimod efficacy”. For the same compound, the “percentage of intratumoral IFNγ+CD8+ T cells” value with subcutaneous MC38 tumors (WT mice) was “increased”. For the same compound, the MC38 tumor growth result in the assay on subcutaneous MC38 tumors (WT mice, 30 mg/kg x 5 days/week, vs vehicle) is on record as “reduced”. The “efficacy in NSG mice” value with subcutaneous MC38 tumors (immune-deficient NSG mice) was “lost”. For the same compound, in the assay with subcutaneous MC38 tumors (vs isotype control), the “efficacy with neutralizing antibody against IFNγ” value is “reduced” and the “efficacy with neutralizing antibody against IL-12” value is given as “reduced”.
